Results published in patent US5591431A, “Enhancement of clot lysis” (G.D. Searle & Co., priority 1990, dated 1997).
Several values for one entry are separate records, joined by “and”; a condition that tells them apart may be missing. Equal values may be shown once. Read-outs that look alike come from different tables or passages of the source. Peptide text beside a SMILES is read from it.

Tests used:
α-2 antiplasmin = test: Antiplasmin assay (plasmin cleavage of S2251) in rabbit plasma during clot lysis experiments; type: in vivo
Description: Antiplasmin levels were monitored by the antiplasmin assay (Helena Labs, Beaumont, Tex.). This assay measures inhibition of plasmin cleavage of a chromogenic substrate S2251 (H-D Valyl-Leucyl-L-Lysine-p-nitroanilide dihydrochloride) obtained from Helena Labs. A typical reaction mixture contains 215 μL of 50 mM Tris buffer pH 7.4, 110 mM NaCl, 5 μL rabbit plasma, 15 μL plasmin (1 unit), and 15 μL of substrate S2251 (3.5 mM stock) in a total reaction volume of 250 μL. The generation of p-nitroaniline product is monitored at […].

tPA antigen = tPA antigen ELISA in rabbit plasma during clot lysis experiments; type: in vivo; conditions: with tPA
Description: Samples of rabbit plasma were assayed by a commercial ELISA assay from American Diagnostic Inc. (ADI), New York, N.Y. Several modifications are made to the ADI protocol, which include using 10 μL of untreated plasma sample to minimize background and spiking the standard curve with 10 μL rabbit plasma to equalize any salt effect that might result. The assay was standardized with mouse C127 cell tPA (Invitron, St. Louis, Mo.).
The tPA antigen levels were monitored hourly to determine if the increase in clot lysis is due to an extended tPA half-life. […] Antigen levels of tPA decreased after infusion is stopped, indicating normal clearance of the exogenous tPA.

fibrinogen [1] = conditions: rabbit, in vivo
Description: (§1) Fibrinogen concentration in dilute plasma is inversely proportional to the thrombin clotting of the plasma (S. Borgstrom, Acta Chir. Scand. 90:419 (1945); A. Clauss, Acta Haemat, 17:273 (1957); K. Jacobson, Scand. J. Clin. Lab. Med. 7:7 (1955). Plasma was diluted 1:10 and 200 μL of this solution added to 100 μL (10 units) of bovine thrombin. Clotting time was measured on a clinical fibrometer, and fibrinogen levels determined as mg/dL plasma.

fibrinogen [2] = test: Fibrinogen level in rabbit plasma by thrombin clotting time during clot lysis experiments; conditions: enhancer peptide dose 0 mg/kg (tPA only)
Description: as §1

[3] = tested on: isolated clot in the rabbit jugular vein (tPA mediated clot lysis); test: Rabbit jugular vein thrombolysis model I: peptide added during clot formation, then tPA infusion; type: in vivo, rabbit (New Zealand White); conditions: tPA alone 0.125 mg/kg infused over 4 h; standard curve 1 conditions
Description: Two independent studies were performed using the rabbit jugular vein thrombolysis model described in D. Collen et al., J. Clin. Invest. 71:368 (1983), with minor modifications. The enhancer peptide was administered during clot formation prior to tPA administration in one set of experiments with the rabbit jugular vein thrombolysis model. The enhancer peptide produced a five-fold increase in the clot lysis obtained from infusion of 0.125 mg tPA/kg, which corresponds to the lysis observed by a six-fold increase in tPA dose.
Clot lysis standard curves were performed for varying doses of tPA from C127 mouse cells (Invitron). […] To compare the data, standard curves were established for each procedure. A linear dose dependency is observed with both sets of data. […] Increases in clot lysis were evaluated by two methods. In the first method, fold increases in % clot lysis were calculated as follows: [formula] […] Fold increase in tPA dose was determined as follows: [formula] […]
An isolated clot was formed in the rabbit jugular vein using bovine thrombin (Calbiochem, San Diego, Calif.) and ^125 I fibrinogen (Amersham, Arlington Heights, Ill.). […] Blood samples were taken every hour from the femoral vein, and clot lysis was measured by comparison of residual radioactivity in the clot at the end of 4 1/2 hours. […]

[4] = tested on: jugular vein clot (tPA mediated clot lysis); test: Rabbit jugular vein thrombolysis model II: peptide coinfused with tPA; type: in vivo, rabbit (New Zealand White); conditions: tPA alone 0.125 mg/kg; standard curve 2 conditions (17% background lysis)
Description: In a second experiment the enhancer peptide was administered with tPA. […] Clot lysis standard curves were performed for varying doses of tPA from […] mouse cells (Invitron). […] To compare the data, standard curves were established for each procedure. A linear dose dependency is observed with both sets of data. […] The chosen dose of tPA (0.125 mg/kg) for the peptide experiments gave 17% and 27% lysis, respectively, for the two sets of experiments. This dose was chosen as the baseline for the peptide study so that an increase in clot lysis would be observable. Increases in clot lysis were evaluated by two methods. In the first method, fold increases in % clot lysis were calculated as follows: [formula] In the second method, the equivalent dose of tPA necessary to obtain the clot lysis observed with tPA and peptide was extrapolated from the appropriate standard curve. Fold increase in tPA dose was determined as follows: [formula] A dose response study was performed with the peptides using a constant tPA dose (FIG. 5). Three doses are tested: 1.85 mg/kg, 0.185 mg/kg and 0.0185 mg/kg, which correspond to molar ratios of peptide to tPA of 385, 38.5, and 3.85, respectively with weight ratios of enhancer peptide to tPA of 15:1, 1.5:1, and 0.15:1 respectively. […]

| α-2 antiplasmin levels (α-2 antiplasmin; all rabbit experiments, including those with increased clot lysis from enhancer peptide) | α-2 Antiplasmin (% of baseline) (α-2 antiplasmin; enhancer peptide dose 0.0185 mg/kg, with tPA) | α-2 Antiplasmin (% of baseline) (α-2 antiplasmin; enhancer peptide dose 0.185 mg/kg, with tPA) | α-2 Antiplasmin (% of baseline) (α-2 antiplasmin; enhancer peptide dose 1.85 mg/kg, with tPA) | α-2 Antiplasmin (% of baseline) (α-2 antiplasmin; enhancer peptide dose 9.25 mg/kg, with tPA) | tPA Antigen 30 min. after Infusion (tPA antigen; enhancer peptide dose 0.0185 mg/kg) | tPA Antigen 30 min. after Infusion (tPA antigen; enhancer peptide dose 0.185 mg/kg) | Fibrinogen levels (fibrinogen [1]) | Fibrinogen (% of baseline) (fibrinogen [1]; 0.0185 mg/kg) | Fibrinogen (% of baseline) (fibrinogen [1]; 0.185 mg/kg) | Fibrinogen (% of baseline) (fibrinogen [1]; 1.85 mg/kg) | Fibrinogen (% of baseline) (fibrinogen [1]; 9.25 mg/kg) | Fibrinogen (% of baseline) (fibrinogen [1]; 18.5 mg/kg) | Molecule | α-2 Antiplasmin (% of baseline) (α-2 antiplasmin; enhancer peptide dose 0 mg/kg (tPA only)) | Fibrinogen (% of baseline) (fibrinogen [2]) | clot lysis [3] | clot lysis [4] |
| --- | --- | --- | --- | --- | --- | --- | --- | --- | --- | --- | --- | --- | --- | --- | --- | --- | --- |
| did not change | 87 +/- 7 % of baseline | 96 +/- 1 % of baseline | 86 +/- 8 % of baseline | 92 +/- 2 % of baseline | 0 mg/mL | 0 mg/mL | did not change | 100 % of baseline | 100 +/- 1 % of baseline | 100 +/- 1 % of baseline | 91 % of baseline | 91 +/- 13 % of baseline | CC[C@H](C)[C@H](NC(=O)[C@H](Cc1ccccc1)NC(=O)[C@@H](NC(=O)[C@H](CC(C)C)NC(=O)[C@H](Cc1ccccc1)NC(=O)[C@@H]1CCCN1C(=O)[C@H](CCCNC(=N)N)NC(=O)[C@H](CC(N)=O)NC(=O)[C@H](C)NC(=O)[C@H](CCCCN)NC(=O)[C@H](Cc1ccccc1)NC(=O)[C@@H](NC(=O)[C@@H](NC(=O)[C@H](CCCNC(=N)N)NC(=O)[C@H](CC(N)=O)NC(=O)[C@@H]1CCCN1C(=O)[C@H](CC(N)=O)NC(=O)[C@H](CC(C)C)NC(=O)[C@H](CO)NC(=O)[C@H](CCCNC(=N)N)NC(=O)CNC(=O)[C@H](C)N)C(C)C)[C@@H](C)O)C(C)C)C(=O)O [enhancer peptide] (H-AGRSLNPNRVTFKANRPFLVFI-OH) | – | – | – | – |
| – | – | – | – | – | – | – | – | – | – | – | – | – | tPA: tissue plasminogen activator from C127 mouse cells (Invitron Lot #76-001-31395), control tPA for this study | 94 +/- 2 % of baseline | 100 % of baseline | 17% and 16 +/- 1% | 27% |
